The source of these data is publication PMC6327986 (Journal of Enzyme Inhibition and Medicinal Chemistry, 2019).

The test concerns the target hCA II (Homo sapiens, UniProt P00918). Briefly: stopped-flow CO2 hydrase assay, hCA II inhibition. The format is biochemical. Conditions: ratio of Ki values versus 3b.

Regarding “[{(η^5-C5H4)–CH = N–N(H)C(O)–C6H4-4–SO2NH2}]Mn(CO)3 [2b]”, the “fold more potent against hCA II than ferrocenyl derivative 3b” value was 8 fold.
As for “[{(η^5-C5H4)–CH = N–N(H)C(O)–CH2CH2–NH–C6H4-4–SO2NH2}]FeCp [3c]”, the “fold potency decrease against hCA II when compared to 3b” value amounted to 4.5 fold.
As to “[{(η^5-C5H4)–CH=N–N(H)C(O)–C6H4-4–SO2NH2}]Re(CO)3 [1b]”, the “fold more potent against hCA II than ferrocenyl derivative 3b” value was 8 fold.
